Assay results reported in US11104648B2, “Pyrazole derivative” (Zhejiang Research Institute of Chemical Industry Co., Ltd., priority 2018, dated 2021).
Like-named read-outs stand apart in the source and are kept apart here.

Key:
Assay type in all cases: in vivo
[1] = system: adult Tetranychus cinnabarinus; assay: Activity assay of adult Tetranychus cinnabarinus (whole-plant spray on bean seedlings); conditions: 48 h; for pest or weed control at 2.5 µg/mL: concentration 2.5 mg/L; for pest or weed control at 1.25 µg/mL: concentration 1.25 mg/L
How it was run: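 Bean seedlings at two-true-leaf stage, infested with adult mites and base count taken, sprayed whole-plant with compound in DMF (≤10%) diluted in 1‰ Tween 80. Three replicates per treatment kept in standard observation room. Surviving mites counted at 48 h to give death rate.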

[2] = system: Tetranychus cinnabarinus Nymphs; assay: Activity assay of Tetranychus cinnabarinus nymphs (spray on broad bean leaves); conditions: 48 h; for pest or weed control at 2.5 µg/mL: concentration 2.5 mg/L; for pest or weed control at 2.5 µg/mL / pest or weed control at 2 µg/mL: read-out: nymph-killing activity; for pest or weed control at 2 µg/mL: concentration 2 mg/L
How it was run: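 Compound in DMF (≤10%) diluted in 1‰ Tween 80 water was sprayed onto broad bean leaves carrying nymphs hatched from eggs laid by female adults over 24 h. Kept at 26±2° C., 70%–80% humidity, 16 h light; mortality (no response to touch) assessed after 48 h, three replicates with blank control.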

[3] = system: Eggs of Tetranychus Cinnabarinus; assay: Activity assay of eggs of Tetranychus cinnabarinus (spray method, ovicidal); conditions: Tetranychus cinnabarinus; for pest or weed control at 5 µg/mL: concentration 5 mg/L, non-incubated eggs counted as dead; for pest or weed control at 2 µg/mL: concentration 2 mg/L
How it was run: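 Female mites laid eggs on broad bean leaves for 24 h, adults removed, eggs sprayed with compound in DMF (≤10%)/1‰ Tween 80. Held at 26±2° C, 70–80% humidity, 16 h light; unhatched eggs counted dead once blank control hatched. Three replicates.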

[4] = read-out: adult mite-killing activity
[5] = spray, read-out: ovicidal activity

Row | SMILES | pest or weed control at 2.5 µg/mL [1, 4] | pest or weed control at 2.5 µg/mL [2] | pest or weed control at 5 µg/mL [3, 5] | pest or weed control at 1.25 µg/mL ([1]; adult mites, parallel determination, read-out: Death rate (%)) | pest or weed control at 1.25 µg/mL [1, 4] | pest or weed control at 2 µg/mL [2] | pest or weed control at 0.5 µg/mL ([2]; nymphs, concentration 0.5 mg/L, parallel determination, read-out: Death rate (%)) | pest or weed control at 2 µg/mL [3, 5] | pest or weed control at 2 µg/mL ([3]; eggs, parallel determination, read-out: Death rate (%))
1 | COC(=O)CSC(=O)OC(C)O/C(=C(/C#N)c1ccc(C(C)(C)C)cc1)c1cc(C)nn1C (stereo not drawn) [Compound 513] | ≥ 90% | ≥ 95% | ≥ 90% | – | – | – | – | – | –
2 | CCn1nc(C)cc1/C(OCOC(=O)OC)=C(\C#N)c1ccc(C(C)(C)C)cc1 [Compound 547] | – | – | – | 100% | ≥ 90% | ≥ 90% | 93% | ≥ 90% | 100%
3 | CCn1nc(C)cc1/C(OCOC(=O)OC(C)C)=C(\C#N)c1ccc(C(C)(C)C)cc1 [Compound 550] | ≥ 90% | ≥ 95% | ≥ 90% | – | ≥ 90% | ≥ 90% | – | ≥ 90% | –
4 | CCCCOC(=O)OCO/C(=C(/C#N)c1ccc(C(C)(C)C)cc1)c1cc(C)nn1CC [Compound 552] | ≥ 90% | ≥ 95% | ≥ 90% | – | – | – | – | – | –
5 | CCn1nc(C)cc1/C(OCOC(=O)OCC(C)C)=C(\C#N)c1ccc(C(C)(C)C)cc1 [Compound 553] | ≥ 90% | ≥ 95% | ≥ 90% | – | ≥ 90% | ≥ 90% | – | ≥ 90% | –
6 | CCn1nc(C)cc1/C(OCOC(=O)OCCC(C)C)=C(\C#N)c1ccc(C(C)(C)C)cc1 [Compound 554] | ≥ 90% | ≥ 95% | ≥ 90% | – | – | – | – | – | –
7 | CCCCCOC(=O)OCO/C(=C(/C#N)c1ccc(C(C)(C)C)cc1)c1cc(C)nn1CC [Compound 556] | ≥ 90% | ≥ 95% | ≥ 90% | – | – | – | – | – | –
8 | CCn1nc(C)cc1/C(OCOC(=O)OCCCl)=C(\C#N)c1ccc(C(C)(C)C)cc1 [Compound 558] | ≥ 90% | ≥ 95% | ≥ 90% | – | – | – | – | – | –
9 | CCn1nc(C)cc1/C(OCOC(=O)OCC(F)(F)F)=C(\C#N)c1ccc(C(C)(C)C)cc1 [Compound 563] | ≥ 90% | ≥ 95% | ≥ 90% | – | – | – | – | – | –
10 | CCn1nc(C)cc1/C(OCOC(=O)OCCOC)=C(\C#N)c1ccc(C(C)(C)C)cc1 [Compound 564] | ≥ 90% | ≥ 95% | ≥ 90% | – | – | – | – | – | –
11 | CCn1nc(C)cc1/C(OCOC(=O)OCCSC)=C(\C#N)c1ccc(C(C)(C)C)cc1 [Compound 567] | ≥ 90% | ≥ 95% | ≥ 90% | – | – | – | – | – | –
12 | C=CCOC(=O)OCO/C(=C(/C#N)c1ccc(C(C)(C)C)cc1)c1cc(C)nn1CC [Compound 570] | ≥ 90% | ≥ 95% | ≥ 90% | – | ≥ 90% | ≥ 90% | – | ≥ 90% | –
13 | C#CCOC(=O)OCO/C(=C(/C#N)c1ccc(C(C)(C)C)cc1)c1cc(C)nn1CC [Compound 572] | ≥ 90% | ≥ 95% | ≥ 90% | – | – | – | – | – | –
14 | CCn1nc(C)cc1/C(OCOC(=O)OCC(=O)OC)=C(\C#N)c1ccc(C(C)(C)C)cc1 [Compound 573] | ≥ 90% | ≥ 95% | ≥ 90% | – | – | – | – | – | –
15 | CCSC(=O)OCO/C(=C(/C#N)c1ccc(C(C)(C)C)cc1)c1cc(C)nn1CC [Compound 576] | ≥ 90% | ≥ 95% | ≥ 90% | – | – | – | – | – | –
16 | CCn1nc(C)cc1/C(OCOC(=O)SCC(=O)OC)=C(\C#N)c1ccc(C(C)(C)C)cc1 [Compound 577] | ≥ 90% | ≥ 95% | ≥ 90% | – | – | – | – | – | –
17 | CCn1nc(C)cc1/C(OC(C)OC(=O)OC)=C(\C#N)c1ccc(C(C)(C)C)cc1 (stereo not drawn) [Compound 579] | ≥ 90% | ≥ 95% | ≥ 90% | – | ≥ 90% | ≥ 90% | – | ≥ 90% | –
18 | CCOC(=O)OC(C)O/C(=C(/C#N)c1ccc(C(C)(C)C)cc1)c1cc(C)nn1CC (stereo not drawn) [Compound 580] | ≥ 90% | ≥ 95% | ≥ 90% | – | ≥ 90% | ≥ 90% | – | ≥ 90% | –
19 | CCn1nc(C)cc1/C(OC(C)OC(=O)OC(C)C)=C(\C#N)c1ccc(C(C)(C)C)cc1 (stereo not drawn) [Compound 582] | ≥ 90% | ≥ 95% | ≥ 90% | – | – | – | – | – | –
20 | CCCCOC(=O)OC(C)O/C(=C(/C#N)c1ccc(C(C)(C)C)cc1)c1cc(C)nn1CC (stereo not drawn) [Compound 584] | ≥ 90% | ≥ 95% | ≥ 90% | – | – | – | – | – | –
